ChEMBL document CHEMBL1133187, “Novel antiarthritic agents with 1,2-isothiazolidine-1,1-dioxide (gamma-sultam) skeleton: cytokine suppressive dual inhibitors of cyclooxygenase-2 and 5-lipoxygenase” (J Med Chem, 2000)

How the values were obtained:
[1] = tested on: Rattus norvegicus; assay: Dose required for 30% inhibition of carrageenan-induced edema; type: functional
[2] = molecular target: T1, Cyclooxygenase (Rattus norvegicus, UniProt P35355+Q63921)
T1 sequence (P35355 whole entry): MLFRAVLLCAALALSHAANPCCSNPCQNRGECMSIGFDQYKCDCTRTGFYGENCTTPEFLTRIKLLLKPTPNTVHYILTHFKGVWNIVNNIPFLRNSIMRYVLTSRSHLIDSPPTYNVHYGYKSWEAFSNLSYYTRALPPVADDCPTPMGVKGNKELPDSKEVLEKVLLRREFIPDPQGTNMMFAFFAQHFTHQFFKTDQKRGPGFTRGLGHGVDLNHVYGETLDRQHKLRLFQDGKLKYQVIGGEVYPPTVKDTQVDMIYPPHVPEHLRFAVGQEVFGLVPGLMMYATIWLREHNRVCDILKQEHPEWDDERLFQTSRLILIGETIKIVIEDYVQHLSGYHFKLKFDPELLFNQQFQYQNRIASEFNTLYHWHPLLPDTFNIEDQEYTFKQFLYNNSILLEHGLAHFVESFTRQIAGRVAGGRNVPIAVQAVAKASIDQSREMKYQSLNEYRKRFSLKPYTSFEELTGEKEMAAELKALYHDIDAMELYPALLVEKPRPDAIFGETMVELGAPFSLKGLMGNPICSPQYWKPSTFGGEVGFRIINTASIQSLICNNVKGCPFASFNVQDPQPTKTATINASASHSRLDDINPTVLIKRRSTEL
T1 sequence (Q63921 whole entry): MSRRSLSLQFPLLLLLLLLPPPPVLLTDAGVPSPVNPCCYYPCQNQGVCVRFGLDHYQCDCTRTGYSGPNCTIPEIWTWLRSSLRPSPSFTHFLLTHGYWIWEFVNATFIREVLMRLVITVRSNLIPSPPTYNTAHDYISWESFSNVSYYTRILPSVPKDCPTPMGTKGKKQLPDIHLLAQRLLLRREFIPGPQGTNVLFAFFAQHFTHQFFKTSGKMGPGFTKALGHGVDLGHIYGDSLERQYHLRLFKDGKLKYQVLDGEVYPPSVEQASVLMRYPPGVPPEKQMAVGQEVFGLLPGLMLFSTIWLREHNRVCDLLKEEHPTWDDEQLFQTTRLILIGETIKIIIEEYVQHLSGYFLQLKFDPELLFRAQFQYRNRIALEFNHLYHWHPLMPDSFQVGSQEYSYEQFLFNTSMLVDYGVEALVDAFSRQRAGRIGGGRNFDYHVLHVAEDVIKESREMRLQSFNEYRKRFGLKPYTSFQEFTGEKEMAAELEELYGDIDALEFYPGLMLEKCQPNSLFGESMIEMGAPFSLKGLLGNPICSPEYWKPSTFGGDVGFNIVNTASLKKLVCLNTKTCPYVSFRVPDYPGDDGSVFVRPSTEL
Description: In vitro inhibitory effect on production of prostaglandin E2 (PGE2) in rat synovial cells.

[3] = tested on: THP-1; assay: In vitro effect on production of lipopolysaccharide (LPS) -induced IL1-beta in human THP-1 cells; type: functional, cell-based
[4] = organism: Rattus norvegicus
Description: Lengths of bleeding ulcer of drug-administered group

[5] = Inhibitory effect on production of cyclooxygenase-2 (COX-2) prostaglandin E2 (PGE2) in human IL1-beta stimulated synovial cells; type: functional
[6] = tested on: Rattus norvegicus; assay: Percent inhibition of carrageenan-induced foot-pad edema at 30 mg/kg po; type: functional
[7] = organism: Rattus norvegicus; assay: Inhibitory effect for increase in plasma prostaglandin E2 (PGE2) level after arachidonic acid (AA) injection into COX-2 lipopolysaccharide-treated rats; type: functional, organism-based
[8] = organism: Rattus norvegicus; assay: Inhibitory effect for increase in plasma prostaglandin E2 (PGE2) level after arachidonic acid (AA) injection into COX-1 non-lipopolysaccharide-treated rats; type: functional, organism-based
[9] = organism: Rattus norvegicus; assay: Dose required for 30% inhibition of adjuvant-induced arthritis; type: functional
[10] = organism: Rattus norvegicus; assay: Dose required for Ulcerogenic effect; type: functional
[11] = organism: Rattus norvegicus; assay: In vitro effect on production of calcium ionophore (A23187) -induced Leukotriene B4 (LTB4) in rat peritoneal cells; type: functional, cell-based
[12] = organism: Homo sapiens; assay: Inhibitory effect on production of (COX-1) thromboxane B2 (TXB2) in human platelet cells; type: functional, cell-based
[13] = tested on: Rattus norvegicus; assay: Percent inhibition of adjuvant-induced arthritis at 10 mg/kg po; type: functional
[14] = tested on: THP-1; assay: In vitro inhibitory effect on production of, lipopolysaccharide (LPS) -induced IL1-beta in human THP-1 cells; type: functional, cell-based
[15] = organism: Rattus norvegicus; assay: In vitro inhibitory effect on production of, Prostaglandin E2 (PGE2) in rat synovial cells; type: functional
[16] = organism: Rattus norvegicus; assay: In vitro inhibitory effect on production of, calcium ionophore (A23187) -induced Leukotriene B4 (LTB4) in rat peritoneal cells; type: functional, cell-based
[17] = tested on: THP-1; assay: In vitro inhibitory effect on production of lipopolysaccharide (LPS)-induced IL1-beta in human THP-1 cells; type: functional, cell-based
[18] = organism: Rattus norvegicus; assay: In vitro inhibitory effect on production of Prostaglandin E2 (PGE2) in rat synovial cells; type: functional
[19] = organism: Rattus norvegicus; assay: In vitro inhibitory effect on production of calcium ionophore (A23187)-induced Leukotriene B4 (LTB4) in rat peritoneal cells; type: functional, cell-based
[20] = tested on: Rattus norvegicus; assay: Percent inhibition of adjuvant-induced arthritis at 10 mg/kg poP<0.01; type: functional; settings: read-out: Inhibition

SMILES	IC50 [2]	IC50 [3]	inhibition in vivo at 30 mg/kg [6]	IC50 [11]	also measured
CCN1CC/C(=C\c2cc(C(C)(C)C)c(O)c(C(C)(C)C)c2)S1(=O)=O	0.0095 µM	10 µM	49.4%	2.5 µM	ED30 [1]: 3.5 mg/kg; Ulcer index [4]: 1.6 mm; IC50 [5]: 0.011 µM; ED50 [7]: 3.19 mg/kg; ED50 [8]: > 30 mg/kg; ED30 [9]: 0.76 mg/kg; Dose [10]: 400 mg/kg; IC50 [12]: 27 µM; inhibition in vivo at 10 mg/kg [13]: 37.8%
CCN1CC/C(=C\c2ccc(O)c(OC)c2)S1(=O)=O					IC50 [14]: > 100 µM; IC50 [15]: > 1 µM; IC50 [16]: > 100 µM
CCN1CC/C(=C\c2ccc(O)cc2)S1(=O)=O					IC50 [14]: > 100 µM; IC50 [15]: > 1 µM; IC50 [16]: > 100 µM
CC(C)N1CC/C(=C\c2cc(C(C)(C)C)c(O)c(C(C)(C)C)c2)S1(=O)=O	0.32 µM				
CC(C)(C)c1cc(/C=C2/CCNS2(=O)=O)cc(C(C)(C)C)c1O	< 0.001 µM	27 µM	10.8%	1.8 µM	
CC(C)(C)c1cc(/C=C2\CCN(c3ccccn3)S2(=O)=O)cc(C(C)(C)C)c1O	1 µM				
CN1OCC/C(=C\c2cc(C(C)(C)C)c(O)c(C(C)(C)C)c2)S1(=O)=O	0.2 µM				
CCN1CC/C(=C\c2cc(OC)c(O)c(OC)c2)S1(=O)=O					IC50 [14]: > 100 µM; IC50 [15]: > 1 µM; IC50 [16]: 2.6 µM
CON1CC/C(=C\c2cc(C(C)(C)C)c(O)c(C(C)(C)C)c2)S1(=O)=O	< 0.001 µM	> 100 µM	26.5%	3 µM	ED30 [1]: 34.7 mg/kg; ED30 [9]: 2.4 mg/kg; inhibition in vivo at 10 mg/kg [13]: 35.2%
CC(C)(C)c1cc(/C=C2\CCN(CC(=O)O)S2(=O)=O)cc(C(C)(C)C)c1O	3.4 µM				
CC(C)(C)c1cc(/C=C2/CCN(c3ccc(Cl)cc3)S2(=O)=O)cc(C(C)(C)C)c1O	< 0.001 µM				
CCN1CC/C(=C/c2cc(C(C)(C)C)c(O)c(C(C)(C)C)c2)S1(=O)=O	0.0021 µM	10 µM	7.3%	2.5 µM	inhibition in vivo at 10 mg/kg [13]: 11.4%
CCN1CC/C(=C\c2cc(C(C)C)c(O)c(C(C)C)c2)S1(=O)=O					IC50 [17]: > 100 µM; IC50 [18]: > 1 µM; IC50 [19]: > 100 µM
CC(C)(C)c1cc(/C=C2\CCN(C3CC3)S2(=O)=O)cc(C(C)(C)C)c1O	0.0025 µM	9 µM	21.4%	3.2 µM	ED30 [1]: 11.9 mg/kg; Ulcer index [4]: 0.7 mm; ED30 [9]: 1.7 mg/kg; Dose [10]: 400 mg/kg; inhibition in vivo at 10 mg/kg [13]: 32.9%
CN1CC/C(=C\c2cc(C(C)(C)C)c(O)c(C(C)(C)C)c2)S1(=O)=O	0.0091 µM	28 µM	61.4%	2.8 µM	ED30 [1]: 5.4 mg/kg; Ulcer index [4]: 26.8 mm; ED30 [9]: 0.64 mg/kg; Dose [10]: 400 mg/kg; inhibition in vivo at 10 mg/kg [20]: 39.4%
CC(C)(C)c1cc(/C=C2\CCN(O)S2(=O)=O)cc(C(C)(C)C)c1O	0.01 µM	90 µM	15.8%	9.5 µM	inhibition in vivo at 10 mg/kg [13]: 3.6%
CON(C)C(=O)N1CC/C(=C\c2cc(C(C)(C)C)c(O)c(C(C)(C)C)c2)S1(=O)=O	0.1 µM	> 100 µM	11.2%	28 µM	
CC(C)CN1CC/C(=C\c2cc(C(C)(C)C)c(O)c(C(C)(C)C)c2)S1(=O)=O	0.41 µM				
